Test results as given in patent publication US7964598B2 (The J. David Gladstone Institutes, priority 1995, dated 2011).
Where “and” joins values, the source holds several entries; their conditions need not be identical. Equal entries are not always repeated. Entries after “also recorded” stand apart in the source; their conditions may differ.

Assays:
Neuro-2a cells = assay: Aβ-induced lysosomal leakage (cytosolic β-hexosaminidase); assay type: cell-based, mouse
Protocol: The cytosolic fraction was obtained by ultracentrifugation, and the cytosolic β-hexosaminidase activity was measured.
Quantitation of the lysosomal enzyme β-hexosaminidase activity in the cytosol indicates lysosomal leakage. […] After incubation the cells were washed and cytosolic fractions were isolated as described in Materials and Methods. The enzymatic activity of β-hexosaminidase was assayed in 20 μg of cytosolic protein for each sample.
Lysosomal leakage was quantitated by assaying cytosolic 0-hexosaminidase activity. […] Conditioned media were prepared as described above. Apoptosis was quantitated by measuring DNA fragmentation.

apoE4 = target: T1, apoE4 (Homo sapiens, UniProt P02649, C130R); assay: Emulsion binding assay for domain interaction, apoE4
T1 construct: made in house
T1 sequence (P02649 19-317 C130R): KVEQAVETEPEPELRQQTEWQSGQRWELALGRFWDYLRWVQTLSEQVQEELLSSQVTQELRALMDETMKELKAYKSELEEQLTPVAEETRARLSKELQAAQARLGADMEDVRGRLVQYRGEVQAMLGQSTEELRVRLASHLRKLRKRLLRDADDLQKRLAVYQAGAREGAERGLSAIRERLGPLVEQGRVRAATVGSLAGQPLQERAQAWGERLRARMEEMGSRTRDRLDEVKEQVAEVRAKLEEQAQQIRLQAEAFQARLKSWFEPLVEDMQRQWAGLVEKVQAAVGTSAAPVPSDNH
Protocol: (§1) Preparation of emulsion particles. Triolein (160 mg) and L-alpha-Phosphatidylcholine (40 mg) are combined and dried under nitrogen. After the addition of 8 mls of buffer (10 mM Tris, 100 mM KCl, 1 mM EDTA, pH 8.0), the mixture is sonicated in a water bath to obtain a heterogeneous mix of emulsion particles. The particles are harvested by ultracentrifugation (TLA 100.2 rotor, 30,000 rpm for 30 minutes) and the subsequent lipid cake is removed by tube slicing and resuspended in 100 μt 20 mM Phosphate Buffer (PB). Triolein and phospholipid content are measured and total emulsion particle concentration is determined.
(§2) Radiolabelling Freshly denatured and renatured Apolipoprotein E3 and E4 are radiolabelled using Bolton-Hunter Reagent [^125I] (ICN). Specific Activity is determined using Lowry method and Gamma 8000 counter.
(§3) Binding Affinity Assay. […] In glass tubes, 25 μg of protein (with iodinated tracer) was reduced with 1% β-mercaptoethanol. Two hundred and fifty μg of emulsion particles and 2.5 μl of compound (10 mM stock) were added and the final mixture was brought up to 250 μl with 20 mM phosphate buffer (PB). The reaction mixture was then incubated in a 37° C. water bath for 2 hours before being transferred to 1.5 ml ultracentrifuge tubes. Finally, 50 μl of 60% sucrose was mixed with the sample and 400 μl 20 mM PB was carefully layered on top. Using a TLA 100.2 rotor, the tube was spun at 30,000 rpm for 30 minutes and subsequently cut to separate the floating emulsion particle layer from the free protein at the bottom of the tube. These fractions were then combined with the respective half of the actual tube and counted using a Gamma-8000. […] Protein-only assays yielded 94.5-96.6% of protein accumulated in the bottom portion of the tube. In emulsion particle-only assays, 94% of emulsion particles accumulated in the top portion of the tube.
(§4) Preparation of Emulsion Particles and VLDL Binding Affinity Assay. VLDL-like emulsion particles were prepared using triolein (160 mg) and L-alpha-phosphatidylcholine (40 mg), as described. Dong and Weisgraber (1996) supra; and Dong et al. (1994) J. Biol. Chem. 269:22358-22365.

YFP-apoE4-CFP cells = assay: MTT cytotoxicity assay; assay type: cell-based, mouse; conditions: 5-10 μM
From the text: (§5) Since the emission spectrum of CFP (460-520 nm) overlaps with the excitation spectrum of YFP (480-520 nm), FLEXstation (Molecular Devices) can be used to measure FRET in living cells expressing YFP-apoE3-CFP or YFP-apoE4-CFP in a high throughput manner. […] Thus, the ratio of FRET to CFP emission in cells expressing YFP-apoE4-CFP is much higher than that in those expressing YFP-apoE3-CFP (FIG. 31). […] Since the FLEXstation can read FRET in both cells and the culture media treated without or with various small molecules, this assay allows one to know whether a small molecule affects apoE4 domain interaction only in the medium (“medium FRET”) or also inside the cell (“intracellular FRET”). In addition, after measurement of the intracellular FRET, the cells can be incubated further with MTT to determine the cytotoxicity of the compound. Thus, the cell-based FRET assay can simultaneously provide three sets of data-intracellular FRET, medium FRET, and cytotoxicity.

apoE3 = target: T2, apoE3 (Homo sapiens, UniProt P02649); assay: Emulsion binding assay, apoE3
T2 construct: made in house
T2 sequence (P02649 19-317): as the sequence (P02649 19-317 C130R) above, with R112C counted along it
Protocol: as §1, §2, §3, §4

YFP-apoE3-CFP = target: T3, YFP-apoE3-CFP (Homo sapiens, UniProt P02649); assay: Cell-based FRET assay, YFP-apoE3-CFP
T3 construct: vector signal peptide (pFLAG-CMV3) (N); FLAG (N); expressed in transfected cells
T3 sequence (P02649 19-317): as the sequence (P02649 19-317 C130R) above, with R112C counted along it
From the text: Xu et al. (2004) J. Biol. Chem. 279:25511-25516. FRET—the non-radioactive transfer of photon energy from an excited fluorophore (donor) to another fluorophore (acceptor)—occurs only when the donor and acceptor are in close proximity (<100 Å). Thus, this approach can be used to measure nanometer scale distances.
Xu et al. (2004) J. Biol. Chem. 279:25511-25516. The constructs are depicted schematically in FIG. 29.
as §5
Quantifying FRET in Transfected Neuro-2a Cells—Stably transfected Neuro-2a cells expressing YFP-apoE3-CFP or YFP-apoE4-CFP at similar levels were selected by fluorescence activated cell sorter (FACS). YFP and CFP images of transfected cells were acquired with the Meta Detector, and their fluorescence intensities were analyzed with the mounted computer. The FRET signal was calculated as the ratio of YFP to CFP fluorescence intensity under CFP excitation. For each YFP-apoE-CFP construct, the FRET signal was measured in at least 12 cells from different fields.
Quantifying FRET in the Culture Medium—Neuro-2a cells stably expressing YFP-apoE3-CFP or YFP-apoE4-CFP and wildtype cells were grown in T175 flasks to 90% confluence and incubated with serum-free minimum essential medium containing N2 supplement for 24 h. The conditioned medium (20 ml/flask) was concentrated about 20-fold with Centriplus-YM-10 concentrators (Amicon, Bedford, Mass.), dialyzed against PBS, illuminated at the CFP excitation wavelength (430 nm), and scanned for emission spectrum. The FRET signal was calculated as the ratio of emission at 525 nm (YFP) to that at 475 nm (CFP). Conditioned medium from cells expressing apoE3-CFP or apoE4-CFP was used to determine baseline fluorescence in the absence of FRET.

[1] = follow-up assay, second E4 control
[2] = initial assay, 2.5 μl of compound (10 mM stock) in 250 μl, 37° C. 2 hours

E4 + cpd n = 3, % bound (apoE4; follow-up assay): 57%
E4 + cpd n = 3, % free (apoE4; follow-up assay): 43%
E4 control, % bound (apoE4; [1]): 46%
E4 control, % free (apoE4; [1]): 54%
E4 + cpd, % bound (apoE4; [2]): 12% and 15%
E4 + cpd, % free (apoE4; [2]): 88% and 85%
binding of apoE3 to the emulsion particles (apoE3): no significant effect
E3 + compound, % bound (apoE3; follow-up assay): 30%
E3 + compound, % free (apoE3; follow-up assay): 70%
Compound: O=S(=O)([O-])c1ccc2c(c1)c(Nc1ccc(S(=O)(=O)O)cc1)cc1c2nc2ccccc2[n+]1-c1ccccc1 [GIND-25, azocarmine-G]
lysosomal leakage, cells with medium alone or medium containing apoE3 plus Aβ1-42 (Neuro-2a cells): no significant effect
apoE4 potentiation of Aβ-induced lysosomal leakage (Neuro-2a cells; 5 μM, apoE4 conditioned medium, Aβ1-42 20 μM): block; also recorded: abolish
apoE4 domain interaction / binding of apoE4 to VLDL-like emulsion particles (apoE4): capable of blocking apoE4 domain interaction; also recorded: inhibited significantly
cytotoxicity (MTT assay) (YFP-apoE4-CFP cells): did not cause significant cytotoxicity
ratio of FRET to CFP emission in cells expressing YFP-apoE3-CFP (YFP-apoE3-CFP; intracellular): none of these compounds altered significantly
ratio of FRET to CFP emission in media of YFP-apoE3-CFP cells (YFP-apoE3-CFP; medium): none of these compounds altered significantly
